# Positions of bridges follow the written chain, without caps; N, C: chain ends. Non-standard residues stand in square brackets, D forms with d. Residues, ends and D or L forms follow the SMILES beside them. 1Nal = N[C@@H](Cc1cccc2ccccc12)C(=O)O; 2Nal = N[C@@H](Cc1ccc2ccccc2c1)C(=O)O
# Molecular target: T1, hVEGF-A (Homo sapiens, UniProt P15692)
# T1 sequence (P15692 207-395): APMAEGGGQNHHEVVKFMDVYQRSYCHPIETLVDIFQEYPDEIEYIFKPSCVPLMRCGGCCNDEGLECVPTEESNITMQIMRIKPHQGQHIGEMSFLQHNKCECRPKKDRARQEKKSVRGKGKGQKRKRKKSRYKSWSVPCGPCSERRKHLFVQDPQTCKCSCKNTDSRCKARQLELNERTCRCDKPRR
# Assay: KDR-CHO VEGF assay to determine cellular IC50 (VEGF mediated Tyr phosphorylation of KDR)
# Format: cell-based
# Experimental: KDR-CHO cells (CHO cells stably transfected with gD tagged-KDR) were grown in cell growth medium (DMEM/Ham's F-12, 10% diafiltered FBS (GIBCO catalog no. 26400), 25 mM HEPES, 2 mM L-GLUTAMAX™). For VEGF stimulation assay, 5×10^4 cells/well were plated in 100 μl of cell plating medium (DMEM/Ham's F-12, 0.2% BSA, 0.25% diafiltered FBS, 25 mM HEPES, 2 mM L-GLUTAMAX™) in 96-well tissue culture plate and incubated at 37° C. overnight. The medium was replaced with 100 I1 of serum-free cell stimulation medium (DMEM/Ham's F-12, 0.5% BSA, 25 mM HEPES) and cells were incubated at 37° C. for 2 hr. One hour before stimulation, the medium was replaced with 50 I1 of serum-free cell stimulation medium. Concurrently, VEGF (50 ng/ml for hVEGF, 100 ng/ml for mVEGF and rVEGF) was pre-incubated with titrated amount of CKP or anti-VEGF in 50 μl of serum-free cell stimulation medium at 37° C. for 1 hour and added to the cells. The cells were stimulated for 15 min at 37 C and the medium is removed. The cells were lysed with 130 I1 of ice-cold cell lysis buffer (150 mM NaCl, 50 mM HEPES, 0.5% Triton-X 100, HALT protease and phosphatase inhibitor cocktail (ThermoFisher Scientific, Inc. catalog no. 78444), 5 mM EDTA). VEGF mediated Tyr phosphorylation of KDR was determined by ELISA-based assay. Briefly, MAXISORP™ 96 well plates (ThermoFisher Scientific, Inc. catalog no. 439454) were coated with 100 I1 of anti-gD antibody diluted in PBS (1 μg/ml) at 4° C. overnight and washed three times with washing buffer (PBS, 0.05% TWEEN®20, pH 7.4). The plates were blocked with 300 I1 of blocking buffer (PBS, 0.5% BSA) at room temperature for 1 hour followed by washing three times with washing buffer. The above KDR-CHO cell lysate (100 μl) was added to each well and incubated at room temperature for 2 hours. The plates were washed four times with washing buffer followed by incubation with 100 I1 of 0.5 μg/ml biotin-conjugated anti-phosphotyrosine (clone 4G10, Millipore catalog no. 16-103) in blocking buffer at room temperature for 2 hours. After washing four times, the plates were incubated with 100 I1 of HRP-conjugated streptavidin in blocking buffer at room temperature for 30 min. After washing four times, the plates were developed with 100 I1 of TMB substrate (BD Biosciences) at room temperature for 20-30 min and stopped by addition of 50 μl of H2SO4 solution. The optical density of each well was determined using a microplate reader set to 450 nm.
Molecule,"FOLD IMPROVEMENT RELATIVE TO VARIANT 9.54.90 (Table 38, from cellular IC50)","FOLD IMPROVEMENT RELATIVE TO VARIANT 9.54.90 (Table 36, from cellular IC50)",cellular potency relative to VEGF_CKP9.54.90 (Table 38)
CCCC[C@@H]1NC(=O)[C@H]([C@@H](C)CC)NC(=O)[C@H](CC(N)=O)NC(=O)[C@@H](NC(=O)CN)CSSC[C@@H](C(=O)N[C@H](C(=O)N[C@H]2CSSC[C@@H](C(=O)NCC(=O)O)NC(=O)[C@H](CO)NC(=O)[C@H](CCC(N)=O)NC(=O)[C@H](Cc3ccc(O)cc3)NC(=O)[C@H](Cc3ccc(O)cc3)NC(=O)[C@H](CCC(N)=O)NC2=O)C(C)C)NC(=O)CNC(=O)[C@H](C)NC(=O)[C@H](CC(C)C)NC(=O)[C@@H]2CSSC[C@H](NC(=O)CNC(=O)[C@H](Cc3c[nH]c4ccccc34)NC(=O)[C@H](Cc3ccccc3)NC(=O)[C@@H]3CCCN3C(=O)[C@H](CC(C)C)NC1=O)C(=O)NCC(=O)N[C@@H](CCCNC(=N)N)C(=O)N[C@@H](CC(=O)O)C(=O)N[C@@H](Cc1ccccc1)C(=O)N[C@@H](CCC(=O)O)C(=O)N2 [9.54.90.M5.Nle],0.69,,
"CC[C@H](C)[C@H](NC(=O)[C@@H]1CSSC[C@H](NC(=O)CN)C(=O)N[C@@H](CC(=O)O)C(=O)N[C@@H](C(C)C)C(=O)N[C@@H](CCSC)C(=O)N[C@@H](CCC(N)=O)C(=O)N2CCC[C@H]2C(=O)N[C@@H](Cc2ccc(O)cc2)C(=O)N[C@@H](Cc2c[nH]c3ccccc23)C(=O)NCC(=O)N[C@H]2CSSC[C@H](NC(=O)[C@H](CC(=O)O)NC(=O)[C@H]([C@@H](C)CC)NC(=O)[C@H](CC(=O)O)NC(=O)[C@@H]3CCCN3C(=O)CNC2=O)C(=O)N[C@@H](CC(C)C)C(=O)N[C@@H](CO)C(=O)N[C@@H](CC(N)=O)C(=O)N1)C(=O)N[C@H]1CSSC[C@@H](C(=O)NCC(=O)O)NC(=O)[C@H](CO)NC(=O)[C@H](CC(N)=O)NC(=O)[C@H](Cc2ccc(O)cc2)NC(=O)[C@H](Cc2c[nH]c3ccccc23)NC(=O)[C@H](Cc2c[nH]cn2)NC1=O [9.63.12.12] (H-GCDVMQPYWGCGPDIDCLSNCICHWYNSCG-OH; disulfide 2-21, 11-17, 23-29; N-terminus and C-terminus assumed)",,2.41,
"CC[C@H](C)[C@@H]1NC(=O)[C@H](CC(N)=O)NC(=O)[C@@H](NC(=O)CN)CSSC[C@@H](C(=O)N[C@H](C(=O)N[C@H]2CSSC[C@@H](C(=O)NCC(=O)O)NC(=O)[C@H](CO)NC(=O)[C@H](CCC(N)=O)NC(=O)[C@H](Cc3ccc(O)cc3)NC(=O)[C@H](Cc3ccc(O)cc3)NC(=O)[C@H](CCC(N)=O)NC2=O)C(C)C)NC(=O)CNC(=O)[C@H](C)NC(=O)[C@H](CC(C)C)NC(=O)[C@@H]2CSSC[C@H](NC(=O)CNC(=O)[C@H](Cc3c[nH]c4ccccc34)NC(=O)[C@H](Cc3ccc(O)cc3)NC(=O)[C@@H]3CCCN3C(=O)[C@H](CC(C)C)NC(=O)[C@H](CCSC)NC1=O)C(=O)NCC(=O)N[C@@H](CCCNC(=N)N)C(=O)N[C@@H](CC(=O)O)C(=O)N[C@@H](Cc1ccccc1)C(=O)N[C@@H](CCC(=O)O)C(=O)N2 [9.54.90.F8Y] (H-GCNIMLPYWGCGRDFECLAGCVCQYYQSCG-OH; disulfide 2-21, 11-17, 23-29; N-terminus and C-terminus assumed)",0.85,,
"CC[C@H](C)[C@H](NC(=O)[C@@H]1CSSC[C@H](NC(=O)CN)C(=O)N[C@@H](CC(N)=O)C(=O)N[C@@H]([C@@H](C)CC)C(=O)N[C@@H](CCSC)C(=O)N[C@@H](CC(C)C)C(=O)N2CCC[C@H]2C(=O)N[C@@H](Cc2ccccc2)C(=O)N[C@@H](Cc2c[nH]c3ccccc23)C(=O)NCC(=O)N[C@H]2CSSC[C@H](NC(=O)[C@H](CCC(=O)O)NC(=O)[C@H](Cc3ccccc3)NC(=O)[C@H](CC(=O)O)NC(=O)[C@H](CCCNC(=N)N)NC(=O)CNC2=O)C(=O)N[C@@H](Cc2ccccc2)C(=O)N[C@@H](Cc2ccc(O)cc2)C(=O)N[C@@H](CCC(=O)O)C(=O)N1)C(=O)N[C@H]1CSSC[C@@H](C(=O)NCC(=O)O)NC(=O)[C@H](CO)NC(=O)[C@H](CCC(N)=O)NC(=O)[C@H](Cc2ccc(O)cc2)NC(=O)[C@H](Cc2ccc(O)cc2)NC(=O)[C@H](CCC(N)=O)NC1=O [9.54.90.62] (H-GCNIMLPFWGCGRDFECFYECICQYYQSCG-OH; disulfide 2-21, 11-17, 23-29; N-terminus and C-terminus assumed)",1.47,1.47,
"CC[C@H](C)[C@@H]1NC(=O)[C@H](CC(N)=O)NC(=O)[C@@H](NC(=O)CN)CSSC[C@@H](C(=O)N[C@H](C(=O)N[C@H]2CSSC[C@@H](C(=O)NCC(=O)O)NC(=O)[C@H](CO)NC(=O)[C@H](CCC(N)=O)NC(=O)[C@H](Cc3ccc(O)cc3)NC(=O)[C@H](Cc3ccc(O)cc3)NC(=O)[C@H](CCC(N)=O)NC2=O)C(C)C)NC(=O)CNC(=O)[C@H](C)NC(=O)[C@H](CC(C)C)NC(=O)[C@@H]2CSSC[C@H](NC(=O)CNC(=O)[C@H](Cc3ccc4ccccc4c3)NC(=O)[C@H](Cc3ccccc3)NC(=O)[C@@H]3CCCN3C(=O)[C@H](CC(C)C)NC(=O)[C@H](CCSC)NC1=O)C(=O)NCC(=O)N[C@@H](CCCNC(=N)N)C(=O)N[C@@H](CC(=O)O)C(=O)N[C@@H](Cc1ccccc1)C(=O)N[C@@H](CCC(=O)O)C(=O)N2 [9.54.90.Naph2] (H-GCNIMLPF[2Nal]GCGRDFECLAGCVCQYYQSCG-OH; disulfide 2-21, 11-17, 23-29; N-terminus and C-terminus assumed)",0.08,,
"CC[C@H](C)[C@H](NC(=O)[C@@H]1CSSC[C@H](NC(=O)CN)C(=O)N[C@@H](CC(N)=O)C(=O)N[C@@H]([C@@H](C)CC)C(=O)N[C@@H](CCSC)C(=O)N[C@@H](CC(C)C)C(=O)N2CCC[C@H]2C(=O)N[C@@H](Cc2ccccc2)C(=O)N[C@@H](Cc2c[nH]c3ccccc23)C(=O)NCC(=O)N[C@H]2CSSC[C@H](NC(=O)[C@H](CCC(=O)O)NC(=O)[C@H](Cc3ccccc3)NC(=O)[C@H](CC(=O)O)NC(=O)[C@H](CCCNC(=N)N)NC(=O)CNC2=O)C(=O)N[C@@H](CCSC)C(=O)N[C@@H](CC(N)=O)C(=O)N[C@@H](CCC(N)=O)C(=O)N1)C(=O)N[C@H]1CSSC[C@@H](C(=O)NCC(=O)O)NC(=O)[C@H](CO)NC(=O)[C@H](CCC(N)=O)NC(=O)[C@H](Cc2ccc(O)cc2)NC(=O)[C@H](Cc2ccc(O)cc2)NC(=O)[C@H](CCC(N)=O)NC1=O [9.54.90.13] (H-GCNIMLPFWGCGRDFECMNQCICQYYQSCG-OH; disulfide 2-21, 11-17, 23-29; N-terminus and C-terminus assumed)",1.41,1.41,
CNIMLPYWGCGRDFECLAGCVCQYYQSC [VEGF_CKP9.54.90 F7Y A2G],,,slight reduction of cellular potency
"CC[C@H](C)[C@@H]1NC(=O)[C@H](CC(N)=O)NC(=O)[C@@H](NC(=O)CN)CSSC[C@@H](C(=O)N[C@H](C(=O)N[C@H]2CSSC[C@@H](C(=O)NCC(=O)O)NC(=O)[C@H](CO)NC(=O)[C@H](CCC(N)=O)NC(=O)[C@H](Cc3ccc(O)cc3)NC(=O)[C@H](Cc3ccc(O)cc3)NC(=O)[C@H](CCC(N)=O)NC2=O)C(C)C)NC(=O)CNC(=O)[C@H](C)NC(=O)[C@H](CC(C)C)NC(=O)[C@@H]2CSSC[C@H](NC(=O)CNC(=O)[C@H](Cc3cccc4ccccc34)NC(=O)[C@H](Cc3ccccc3)NC(=O)[C@@H]3CCCN3C(=O)[C@H](CC(C)C)NC(=O)[C@H](CCSC)NC1=O)C(=O)NCC(=O)N[C@@H](CCCNC(=N)N)C(=O)N[C@@H](CC(=O)O)C(=O)N[C@@H](Cc1ccccc1)C(=O)N[C@@H](CCC(=O)O)C(=O)N2 [9.54.90.Naph1] (H-GCNIMLPF[1Nal]GCGRDFECLAGCVCQYYQSCG-OH; disulfide 2-21, 11-17, 23-29; N-terminus and C-terminus assumed)",0.24,,
